Results from patent US8962842B2, “2-pyridone antimicrobial compositions” (priority 2010, dated 2015).
Read-outs that look alike come from different tables or passages of the source.

Columns and labels:
[1] = test system: Pseudomonas aeruginosa (12 strains); assay: MIC range, broader panel of Quotient Bioresearch strains (Table 4); assay type: cell-based
[2] = test system: Haemophilus influenza (5 strains); assay: as above; assay type: cell-based, Haemophilus influenzae
[3] = test system: Enterococcus faecium (3 strains); assay: MIC range, broader panel of Quotient Bioresearch strains (Table 3)
[4] = test system: Klebsiella pneumonia (4 strains); assay: MIC range, broader panel of Quotient Bioresearch strains (Table 4); assay type: cell-based; details: Klebsiella pneumoniae
[5] = test system: Group C Streptococcus (4 strains); assay: MIC range, broader panel of Quotient Bioresearch strains (Table 3)
[6] = test system: Staphylococcus aureus (16 strains); assay: as above
[7] = test system: Escherichia coli (6 strains); assay: MIC range, broader panel of Quotient Bioresearch strains (Table 4); assay type: cell-based
[8] = test system: Burkholderia cepacia (5 strains); assay: as above; assay type: cell-based
[9] = test system: Streptococcus pyogenes (4 strains); assay: MIC range, broader panel of Quotient Bioresearch strains (Table 3)
[10] = test system: Acinetobacter baumannii, quinolone-resistant strains (Quotient Bioresearch catalogue); assay: MIC against pathogens resistant against quinolones (Table 5); assay type: cell-based
[11] = test system: Bacterial strains injected into thigh muscles; assay type: in vivo, mice
[12] = test system: Enterococcus faecalis (5 strains); assay: MIC range, broader panel of Quotient Bioresearch strains (Table 3)
[13] = test system: Streptococcus pneumonia (5 strains); assay: as above; details: Streptococcus pneumoniae
[14] = test system: Acinetobacter baumannii (12 strains); assay: MIC range, broader panel of Quotient Bioresearch strains (Table 4); assay type: cell-based
physchem = assay type: physicochemical; details: thermodynamic from solid
Experimental: The solutions were incubated at room temperature for 24 hours before quantification by HPLC detection. Aqueous solubility was evaluated in simulated gastric fluid (SGF), simulated intestinal fluid (SIF) and phosphate buffer saline (PBS) pH 7.4. Aqueous solubility is expressed in Table 11 as mean solubility in μM.

[15] = Metabolic stability in liver microsomes +/- S9 fraction (Table 8); assay type: in vitro ADME; details: 1 μM
Experimental: Metabolic stability of a select number of examples was tested in liver microsomes+/−addition of S9 fraction as described by Kuhnz, W. and Gieschen, H. (1998), Drug Metab. Dispos., 1120-1127. Test concentration was 1 μM and HPLC/MS-MS was used for detection.

SMILES: Cc1c(-c2ccc(O)cc2)ccn2c(=O)c(C(=O)[O-])cc(C3CC3)c12.[K+] [Example 46 K salt, potassium 1-cyclopropyl-8-(4-hydroxy-phenyl)-9-methyl-4-oxo-4H-quinolizine-3-carboxylate]
- MIC ([1]; read-out: MIC Range High, Pseudomonas aeruginosa (12 strains)): > 32 mg/L
- MIC ([1]; read-out: MIC Range Low, Pseudomonas aeruginosa (12 strains)): 0.25 mg/L
- MIC50 ([1]; read-out: MIC Range Median, Pseudomonas aeruginosa (12 strains)): 4 mg/L
- MIC50 ([2]; 16 h, Median of the strain panel): ≤ 0.015 mg/L
- MIC ([2]; High of the strain panel, read-out: MIC Range High, Haemophilus influenza (5 strains)): ≤ 0.015 mg/L
- MIC ([2]; Low of the strain panel, read-out: MIC Range Low, Haemophilus influenza (5 strains)): ≤ 0.015 mg/L
- MIC ([3]; read-out: MIC Range Low, Enterococcus faecium (3 strains)): 0.12 mg/L
- MIC50 ([3]; read-out: MIC Range Median, Enterococcus faecium (3 strains)): 0.5 mg/L
- MIC ([4]; read-out: MIC Range High, Klebsiella pneumonia (4 strains)): > 32 mg/L
- MIC ([4]; read-out: MIC Range Low, Klebsiella pneumonia (4 strains)): 0.06 mg/L
- MIC50 ([4]; read-out: MIC Range Median, Klebsiella pneumonia (4 strains)): 18 mg/L
- MIC ([5]; read-out: MIC Range High, Group C Streptococcus (4 strains)): 0.06 mg/L
- MIC ([5]; read-out: MIC Range Low, Group C Streptococcus (4 strains)): 0.03 mg/L
- MIC50 ([5]; read-out: MIC Range Median, Group C Streptococcus (4 strains)): 0.045 mg/L
- MIC ([6]; read-out: MIC Range High, Staphylococcus aureus (16 strains)): 0.12 mg/L
- MIC ([6]; read-out: MIC Range Low, Staphylococcus aureus (16 strains)): ≤ 0.015 mg/L
- MIC50 ([6]; read-out: MIC Range Median, Staphylococcus aureus (16 strains)): 0.06 mg/L
- MIC ([7]; read-out: MIC Range High, Escherichia coli (6 strains)): 32 mg/L
- MIC ([7]; read-out: MIC Range Low, Escherichia coli (6 strains)): ≤ 0.015 mg/L
- MIC50 ([7]; read-out: MIC Range Median, Escherichia coli (6 strains)): 12 mg/L
- MIC ([8]; read-out: MIC Range High, Burkholderia cepacia (5 strains)): 0.12 mg/L
- MIC ([8]; read-out: MIC Range Low, Burkholderia cepacia (5 strains)): 0.06 mg/L
- MIC50 ([8]; read-out: MIC Range Median, Burkholderia cepacia (5 strains)): 0.12 mg/L
- MIC ([9]; read-out: MIC Range High, Streptococcus pyogenes (4 strains)): 0.12 mg/L
- MIC ([9]; read-out: MIC Range Low, Streptococcus pyogenes (4 strains)): 0.03 mg/L
- MIC50 ([9]; read-out: MIC Range Median, Streptococcus pyogenes (4 strains)): 0.06 mg/L
- MIC ([10]; Acinetobacter baumannii, GN54): 2 mg/L
- Log reduction (LgR) from vehicle control (CFU/g) ([11]; E. coli ATCC 25922, mouse thigh, 30 mg/kg TDS p.o.): 0.37
- Log reduction (LgR) from vehicle control (CFU/g) ([11]; MRSA ATCC 43300, mouse thigh, 30 mg/kg TDS p.o.): 3.76
- MIC ([12]; read-out: MIC Range Low, Enterococcus faecalis (5 strains)): ≤ 0.015 mg/L
- MIC50 ([12]; read-out: MIC Range Median, Enterococcus faecalis (5 strains)): 0.03 mg/L
- MIC ([13]; read-out: MIC Range Low, Streptococcus pneumonia (5 strains)): 0.06 mg/L
- MIC50 ([13]; read-out: MIC Range Median, Streptococcus pneumonia (5 strains)): 0.06 mg/L
- MIC ([14]; read-out: MIC Range High, Acinetobacter baumannii (12 strains)): 16 mg/L
- MIC ([14]; read-out: MIC Range Low, Acinetobacter baumannii (12 strains)): 0.03 mg/L
- MIC50 ([14]; read-out: MIC Range Median, Acinetobacter baumannii (12 strains)): 4 mg/L
- solubility at 24 h (physchem; fassgf or other biorelevant): 153 µM
- solubility at 24 h (physchem; pH 7.4, aqueous buffer): 44 µM
- solubility at 24 h (physchem; simulated gastric fluid): 7 µM
- Mean Parent Remaining ([15]; Liver microsomes + S9, human): 97%
- Mean Parent Remaining ([15]; Liver microsomes + S9, mouse): 92%
- Mean Parent Remaining ([15]; Liver microsomes, human): 86%
- Mean Parent Remaining ([15]; Liver microsomes, mouse): 81%

SMILES: C[C@H]1COc2c(N3CCN(C)CC3)c(F)cc3c(=O)c(C(=O)O)cn1c23 [Levofloxacin, reference compound]
- MIC ([10]; strain GN54, Acinetobacter baumannii levofloxacin-resistant clinical isolate, read-out: MIC): ≥ 16 mg/L

SMILES: CN[C@H](CC(C)C)C(=O)N[C@H]1C(=O)N[C@@H](CC(N)=O)C(=O)N[C@H]2C(=O)N[C@H]3C(=O)N[C@H](C(=O)N[C@H](C(=O)O)c4cc(O)cc(O)c4-c4cc3ccc4O)[C@H](O)c3ccc(c(Cl)c3)Oc3cc2cc(c3O[C@@H]2O[C@H](CO)[C@@H](O)[C@H](O)[C@H]2O[C@H]2C[C@](C)(N)[C@H](O)[C@H](C)O2)Oc2ccc(cc2Cl)[C@H]1O [vancomycin]
- Log reduction (LgR) from vehicle control (CFU/g) ([11]; MRSA ATCC 43300, mouse thigh, 25 mg/kg i.v. once): 2.71
